We go through eight molecules from patent publication US20170165259A1, “COMBINED MODULATION OF IRE1” (THE REGENTS OF THE UNIVERSITY OF CALIFORNIA, priority 2014, published 2017).

The IC50 is the concentration at which inhibition is half-maximal.

In data set [1] the test system is IRE1α mutants that lack kinase activity. The note with it: cited from earlier work.
The test system of data set [2] is endogenous IRE1α. Briefly: XBP1 mRNA splicing in INS-1 cells under ER stress. The data set is classed as cell-based, rat. As to the method: (§1) FIGS. 5A-5E. […] (FIG. 5C) EtBr-stained agarose gel of XBP1 complementary DNA (cDNA) amplicons from the INS-1 cells described in (B).
(§2) To further explore how IRE1α modulators affect the kinase and RNase activities of endogenous IRE1α under ER stress, in vivo studies using INS-1 rat insulinoma cell lines, which are derived from insulin-producing pancreatic β-cell tumors and contain large well-developed ERs, were conducted.

Data set [3] has as its system endogenous IRE1α. Briefly: IRE1α auto-phosphorylation immunoblot in INS-1 cells under ER stress. It counts as cell-based, rat. As to the method: as §1, §2
For protein analysis, cells were lysed in M-PER buffer (Thermo Scientific) plus complete EDTA-free protease inhibitor (Roche) and phosphatase inhibitor cocktail (Sigma). The concentration of samples was determined using BCA Protein Assay (Thermo). […] Gels were run using MES buffer and transferred onto nitrocellulose transfer membrane using an XCell II™ Blot Module. Blocking, antibody incubation, and washing were done in PBS or TBS with 0.05% Tween-20 (v/v) and 5% (w/v) non-fat dry milk or BSA, or blocking buffer (Licor-Odyssey). Antibodies used were: mouse anti-Actin (Sigma-Aldrich); rabbit anti-cleaved Caspase-2 (Abcam); mouse anti-GAPDH, anti-c-Myc, anti-rabbit, anti-proinsulin, and anti-IRE1α (Santa Cruz Biotechnology); anti-phospho-IRE1α and anti-full length Caspase-2 (Novus Biologicals); and rabbit anti-Caspase-3, anti-JNK, anti-eIF2a, anti-phospho-eIF2a, and mouse anti-phospho-JNK (Cell Signaling). Antibody binding was detected by using near-infrared-dye-conjugated secondary antibodies (Licor) on the LI-COR Odyssey scanner or visualized by capturing on a CL-XPosure film using ECL SuperSignal West Dura Extended Duration Substrate (both from Thermo Scientific).
Background: Immunoblotting shows a protein as a band on a membrane.

In data set [4] the target is T1, IRE1α* (Homo sapiens, UniProt O75460).
T1 construct: human IRE1α (residues 469-977, IRE1α*); made in house; host or cells: SF9 insect cells, Bac-to-Bac baculovirus
T1 sequence (O75460 469-977): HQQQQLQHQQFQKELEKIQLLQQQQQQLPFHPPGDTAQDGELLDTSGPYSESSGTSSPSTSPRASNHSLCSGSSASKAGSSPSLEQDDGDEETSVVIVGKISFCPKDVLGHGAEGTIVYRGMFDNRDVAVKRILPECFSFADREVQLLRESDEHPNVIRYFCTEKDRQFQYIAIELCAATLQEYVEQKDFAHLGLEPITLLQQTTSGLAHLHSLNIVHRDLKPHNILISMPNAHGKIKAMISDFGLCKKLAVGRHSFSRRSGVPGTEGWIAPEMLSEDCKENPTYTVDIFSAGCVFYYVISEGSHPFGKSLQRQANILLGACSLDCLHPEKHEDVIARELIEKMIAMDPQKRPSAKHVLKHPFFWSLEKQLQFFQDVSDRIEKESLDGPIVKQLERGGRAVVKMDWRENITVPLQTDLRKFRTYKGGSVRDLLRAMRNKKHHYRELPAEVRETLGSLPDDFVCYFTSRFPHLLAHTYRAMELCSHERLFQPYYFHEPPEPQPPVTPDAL
Briefly: ICAT cysteine footprinting (alkylation rates). The data set is classed as binding. The note with it: inhibitor 20 μM. The source says: FIGS. 3A-3D. Characterization of GP146's interaction with the ATP-binding site of IRE1α. (FIG. 3A) A crystal structure of the kinase domain of human IRE1α bound to ADP; the native cysteine residues that were monitored using the ICAT footprinting method are labeled and shown as thick rods and the DFG-motif is shown as thin bars; cys715 is part of the hinge region of IRE1α and its side chain partially occupies the ATP-binding site; cys645 is in the activation loop, two residues away from the DFG-motif; cys572 is located on the top of the N-terminal lobe of the catalytic domain and is distant from the ATP-binding site.
As Cys645 and Cys715 are located within the ATP-binding cleft of IRE1α, the accessibility of these residues would be expected to be affected by ligands that occupy this site, while Cys572 is a solvent-exposed residue located on the top of the N-terminal lobe of the kinase.

In the next data set the target is T2, dP-IRE1α* (Homo sapiens, UniProt O75460).
T2 construct: human IRE1α (residues 469-977, IRE1α*); made in house; host or cells: SF9 insect cells, then λ-phosphatase (NEB) treatment
T2 sequence (O75460 469-977): as above
Briefly: XBP1 RNA minisubstrate RNase assay with dephosphorylated IRE1α*. It counts as biochemical. The note with it: of the levels of IRE1α*; increasing APY29. The source says: Reactions were quenched by addition of 4 M urea at different time points and then were subjected to urea 6% PAGE analysis.

In another data set the test system is yeast and murine IRE1α. The note with it: cited from earlier work.
The target in data set [5] is T1, IRE1α*. Briefly: IRE1α* autophosphorylation kinase assay in vitro. It counts as biochemical.
Another data set deals with T3, IRE1α* (P830L) (Homo sapiens, UniProt O75460, P830L).
T3 construct: human IRE1α (residues 469-977, IRE1α*) or equivalent IRE1α mutants; made in house; host or cells: SF9 insect cells, Bac-to-Bac baculovirus
T3 sequence (O75460 469-977 P830L): as the sequence (O75460 469-977) above, with P362L counted along it
Description: IRE1α* (P830L) cancer mutant: kinase, RNase, oligomeric state in vitro. It counts as biochemical. An excerpt:
Compared to IRE1α* (WT), IRE1α* (P830L) has reduced kinase activity, as the full-length protein does in vivo. […] IRE1α* (P830L) cannot cleave a FRET-quenched XBP1 RNA mini-substrate (Han et al., 2009), consistent with reduced RNase activity in vivo.
A construct containing the cytosolic kinase and RNase domains of human IRE1α (residues 469-977, IRE1α*) or equivalent IRE1α mutants was expressed in SF9 insect cells using the Bac-to-Bac baculovirus expression system (Invitrogen) as described (Wang et al., 2012). […] (NEB)-treated dephosphorylated IRE1α* (dP-IRE1α*) was also prepared and all the crosslinking experiments were performed as described (Wang et al., 2012). The RNase assay using 5′FAM-3′BHQ-labeled XBP1 single stem-loop minisubstrate (5′FAM-[…]-3′BHQ, from Dharmacon) (SEQ ID NO:22), and the IRE1α*auto-phosphorylation kinase assay were both done as described (Wang et al., 2012). The ability of KIRA6 to inhibit the catalytic activity of Erk2, JNK2, JNK3, PKA, and Piml was determined using previously reported assay conditions (Hill et al., 2012). Internally ^32P-labelled RNAs (mouse XBP1 RNA and Ins2 RNA, as described in (Han et al., 2009), and rat rhodopsin mRNA) were also used as substrates. For time-course determination, IRE1α* proteins (16 nM) were incubated with or without 10 μM 1NM-PP1 for 20 min prior to addition of 20 nM radio-labeled RNAs. Reactions were quenched by addition of 4 M urea at different time points and then were subjected to urea 6% PAGE analysis. […] The cleavage buffer and general manipulation are the same as described (Wang et al., 2012). cDNA for rat rhodopsin was purchased from Invitrogen and amplified by PCR using primers: 5′-[…]-3′ (forward) (SEQ ID NO:23) and 5′-[…]-3′ (reverse) (SEQ ID NO:24). RNA was in vitro transcribed, cleaved by IRE1α*, and the cleavage sites mapped as described (Wang et al., 2012).

Data set [6] can be described thus: Compound toxicity / proliferative blocks in cells. It counts as cell-based.
For data set [7], the target named is T1, IRE1α*. Briefly: XBP1 RNA minisubstrate (FRET-quenched) RNase assay. It counts as biochemical. The note with it: for IRE1α* RNase activity (XBP1 RNA cleavage), effect in words: in vitro.
The target in data set [8] is T1, IRE1α*. Description: DSS crosslinking, oligomer/monomer ratio of IRE1α*. The data set is classed as biochemical. The note with it: saturating inhibitor, DSS crosslinker.
In data set [9] the test system is panel of kinases (Src, Abl). Briefly: Counter-screen against a panel of kinases. It counts as biochemical. The note with it: 12 kinases in this panel. In general terms: A counterscreen serves to expose hits that act by an unwanted route or on another target.
The target in data set [10] is T1, IRE1α*. Briefly: IRE1α* kinase assay (96-well dot blot, 32γ-ATP, STK peptide substrate 2). It counts as biochemical. As to the method:
FIGS. 16A-16C. Divergent modulation of IRE1α RNase activity using distinct classes of kinase inhibitors. (FIG. 16A) KIRA6 inhibition of IRE1α* kinase activity. IC50 values determined by fitting percent kinase activity (n=3); Urea PAGE of competition cleavage by IRE1α* of XBP1 RNA mini-substrate (FIG. 16B) and α^32P-labeled Ins2 RNA (FIG. 16C), under indicated [KIRA6]; IC50s determined by fitting in-gel fluorescence intensities (XBP1) and phosphorimager (Ins2).
KIRAs are tested for ability to inhibit IRE1α* kinase and RNase activities in vitro. The XBP1 minisubstrate assay shown in FIGS. 1B-1C, is amenable to 96- or 384-well format, and is used to determine RNase IC50s. In parallel, kinase IC50s for all KIRAs are determined in a 96-well dot blot assay with 32γ-ATP and STK peptide substrate 2 as substrates. Time-dependence of inhibition is determined for all electrophile-containing KIRAs. RNase and kinase assays have been used to profile the KIRAs in FIG. 13, showing a strong correlation between kinase and RNase IC50s. […] Thus, the structure-based design strategy uses these two kinases as counter targets (described below).

The mark [11] stands for this setting: varying concentration of the tested inhibitor.

For `CC(C)(C)n1nc(Cc2cccc3ccccc23)c2c(N)ncnc21` [1NM-PP1], the “RNase activity of kinase-inactive IRE1α mutants” value in data set [1] is given as “able to rescue the RNase activity of IRE1α mutants that lack kinase activity”.

With `CNc1nccn2c(C(C)(C)C)nc(-c3ccc(NC(=O)Nc4cccc(C(F)(F)F)c4)c4ccccc34)c12` [(NMe)KIRA6, 1-(4-(8-methylamino-3-tert-butylimidazo[1,5-a]pyrazin-1-yl)naphthalen-1-yl)-3-(3-(trifluoromethyl)phenyl)urea], the “XBP1 mRNA splicing in INS-1 cells” value in the data set on endogenous IRE1α [2] (by Tm, compound at 10 μM) was “inhibits neither output”. The “endogenous IRE1α auto-phosphorylation in INS-1 cells” value in the data set on endogenous IRE1α [3] (by Tg, compound at 10 μM) is given as “inhibits neither output”.

`c1cc(Nc2cc(C3CC3)[nH]n2)nc(Nc2ccc3nc[nH]c3c2)n1` [APY29]: at IRE1α* [4], the “accessibility of Cys572” value is on record as “no detectable difference”, the “accessibility of Cys645 to alkylating agents” value is given as “highly shielded from alkylating agents” and the “accessibility of Cys715 (rate of alkylation)” value is listed as “slowing the rate of alkylation”. Besides, the “dP-IRE1α* cleavage of XBP1 mini-substrate restored, plateau” value at dP-IRE1α* is on record as approximately 60%. In addition, the “RNase of yeast and murine IRE1α” value with yeast and murine IRE1α was “directly activate the RNase of yeast and murine IRE1α”. On IRE1α* [5], this molecule yielded a half-inhibitory concentration (IC50) of 280 nM. At IRE1α* (P830L), the “RNase activity of IRE1α* (P830L)” value is on record as “partially rescue RNase activity”, the “autophosphorylation by IRE1α* (P830L)” value is given as “suppresses residual autophosphorylation” and the “oligomeric state of IRE1α* (P830L)” value is reported as “increases IRE1α* (P830L)'s oligomeric state”. The toxicity in cells entry in data set [6] is reported as “pleiotropic toxicity, including proliferative blocks at low micromolar concentrations”. In addition, the “IRE1α* RNase activity (XBP1 RNA cleavage), effect in words” value (shortened to “IRE1α* RNase activity”) on IRE1α* [7] was “acting as an activator”. In addition, on IRE1α* [7] (setting [11]), the “RNase competition, IRE1α* under fixed KIRA3 (GP146)” value is reported as “progressively reverse IRE1α* RNase inhibition caused by a fixed concentration of KIRA3” and the “RNase competition, IRE1α* under fixed STF-083010” value is “cannot rescue direct inhibition caused by the covalent RNase modifier STF-083010”. For the same molecule, the “IRE1α* oligomerization (oligomer/monomer ratio)” value at IRE1α* [8] was “further enhances”.

Consider `CC(C)c1nc(-c2ccc(NC(=O)c3cccc(C(F)(F)F)c3)c3ccccc23)c2c(N)nccn12` [GP146(Am), N-(4-(8-amino-3-isopropylimidazo[1,5-a]pyrazin-1-yl)naphthalen-1-yl)-3-(trifluoromethyl)benzamide], for which the “IRE1α* RNase activity” value at IRE1α* [7] is reported as “markedly diminished ability to inhibit the RNase activity of IRE1α compared to GP146”.

For the molecule `CNc1nccn2c(C(C)C)nc(-c3ccc(NC(=O)Nc4cccc(C(F)(F)F)c4)c4ccccc34)c12` [GP146(NMe), 1-(4-(3-isopropyl-8-(methylamino)imidazo[1,5-a]pyrazin-1-yl)naphthalen-1-yl)-3-(3-(trifluoromethyl)phenyl)urea], in the data set on endogenous IRE1α [2] (thapsigargin (Tg) 6 nM), the “XBP1 mRNA splicing (IRE1α RNase activity) in INS-1 cells” value is on record as “does not block the splicing of XBP1 mRNA”. Further, on IRE1α* [7], the “IRE1α* RNase activity” value is reported as “markedly diminished ability to inhibit the RNase activity of IRE1α compared to GP146”.

Regarding `CC(C)c1nc(-c2ccc(NC(=O)Nc3cccc(C(F)(F)F)c3)cc2)c2c(N)nccn12` [KIRA2, 1-(4-(8-amino-3-isopropylimidazo[1,5-a]pyrazin-1-yl)phenyl)-3-(3-(trifluoromethyl)phenyl)urea], on IRE1α* [7], the “IRE1α* RNase activity” value is recorded as “significant increase in overall potency”.

In the case of `CC(C)c1nc(-c2ccc(NC(=O)Nc3cccc(C(F)(F)F)c3)c3ccccc23)c2c(N)nccn12` [KIRA3, 1-(4-(8-amino-3-isopropylimidazo[1,5-a]pyrazin-1-yl)naphthalen-1-yl)-3-(3-(trifluoromethyl)phenyl)urea], the “off-target inhibition in kinase panel” value in data set [9] is “the only off-target inhibition observed is for the tyrosine kinases Src and Abl”. Moreover, in the data set on endogenous IRE1α [3] (ER stress (Tg)), the “endogenous IRE1α auto-phosphorylation in INS-1 cells” value is given as “abrogates IRE1α autophosphorylation”.

For `CC(C)(C)c1nc(-c2ccc(NC(=O)Nc3cccc(F)c3)c3ccccc23)c2c(N)nccn12` [KIRA7], the values for the IC50 against IRE1α* [10] and on IRE1α* [7] (IRE1α*) were 35 nM and less than 30 nM, respectively.
